Where “and” joins values, the source holds several entries; their conditions need not be identical. Equal entries are not always repeated.
Tested on: serum PTH
Experiment: 5/6 nephrectomized rats study: serum PTH level
Assay type: in vivo, rat
Details: 5/6 Nx rats; for Serum PTH levels before (day 0) and 24 h after evocalcet administration, Mean / Serum PTH levels after the first administration, Mean: group mean; for Serum PTH levels before (day 0) and 24 h after evocalcet administration: individual rats
Experimental: Rats were 5/6 nephrectomized in two steps. Under anesthesia (pentobarbital, 50 mg/kg; intraperitoneally) and analgesia (lidocaine; topically), two-thirds of the left kidney was removed, and then the right kidney was removed after a seven-day interval. Seven days after the completion of 5/6 nephrectomy, the FR-2 diet was changed to a high-phosphate diet, containing 0.6% calcium and 0.9% phosphate (Oriental Yeast Co., Ltd., Tokyo, Japan). Approximately 2 weeks after the initiation of the high-phosphate diet, the 5/6 Nx rats were divided into five groups (n = 12/group) matched in terms of their body weight as well as their blood urea nitrogen (BUN) and serum PTH and calcium levels.
In the single-dose study, blood samples were collected from the tail vein before and at 0.5, 2, 4, 8, 24, 48, and 72 h after the oral administration of vehicle (0.5% methyl cellulose solution) or evocalcet (0.03, 0.1, 0.3, or 1 mg/kg). In the repeated-dose study, vehicle or evocalcet was orally administered to the respective groups once daily for 14 days. Blood samples were obtained from the tail vein before the first administration and after the seventh and last administrations.
The serum PTH level was measured using a Rat Intact PTH ELISA kit (Immutopics, Inc., San Clemente, CA). The serum calcium, phosphate and BUN levels were measured using an auto analyzer (Hitachi High-Technologies Corporation., Tokyo, Japan) or the following test kits: the Calcium E-test WAKO, the Phospha C-test WAKO, or the Blood Urea nitrogen B-test WAKO (Wako Pure Chemical Industries, Ltd., Osaka, Japan).

Which “Serum PTH levels before (day 0) and 24 h after evocalcet administration, Mean” value (0.1 mg/kg, day 7 (24 h)) does the source give for `C[C@@H](N[C@H]1CCN(c2ccc(CC(=O)O)cc2)C1)c1cccc2ccccc12` [evocalcet] here?
Its value is 2408.528.

And the “Serum PTH levels before (day 0) and 24 h after evocalcet administration” value (0.1 mg/kg, day 7 (24 h), 0.1 mg/kg)?
The value was 1659.111 and 1709.141 and 1368.206 and 692.961 and 2049.745 and 3311.770 and 3632.825 and 4438.329 and 2720.020 and 2668.995 and 3977.154 and 674.076.

And the “Serum PTH levels before (day 0) and 24 h after evocalcet administration, Mean” value (0.1 mg/kg, day 14 (24 h))?
Its value is 1395.021.

And the “Serum PTH levels before (day 0) and 24 h after evocalcet administration” value (0.1 mg/kg, day 14 (24 h), 0.1 mg/kg)?
Its value is 1994.437 and 1611.022 and 2757.774 and 1453.572 and 176.238 and 2214.760 and 1548.955 and 1921.086 and 242.603 and 1372.697 and 1155.599 and 291.504.

What about the “Serum PTH levels before (day 0) and 24 h after evocalcet administration, Mean” value (0.3 mg/kg, day 0 (before)) of the same molecule?
Its value is 2359.764.

And the “Serum PTH levels before (day 0) and 24 h after evocalcet administration” value (0.3 mg/kg, day 0 (before), 0.3 mg/kg)?
The value was 1632.745 and 2446.532 and 2253.029 and 2449.574 and 3238.325 and 2017.644.

What about the “Serum PTH levels before (day 0) and 24 h after evocalcet administration, Mean” value (0.3 mg/kg, day 7 (24 h)) of the same molecule?
The value was 387.934.

What about the “Serum PTH levels before (day 0) and 24 h after evocalcet administration” value (0.3 mg/kg, day 7 (24 h), 0.3 mg/kg) of the same molecule?
The value was 516.033 and 370.580 and 777.450 and 52.037 and 15.500 and 862.269.

What about the “Serum PTH levels before (day 0) and 24 h after evocalcet administration, Mean” value (0.3 mg/kg, day 14 (24 h)) of the same molecule?
Its value is 440.352.

What about the “Serum PTH levels before (day 0) and 24 h after evocalcet administration” value (0.3 mg/kg, day 14 (24 h), 0.3 mg/kg) of the same molecule?
Its value is 134.323 and 160.654 and 218.153 and 43.180 and 221.109 and 481.197.

What about the “Serum PTH levels after the first administration, Mean” value (0.3 mg/kg, time 0 h) of the same molecule?
The value was 2359.764.

What about the “Serum PTH levels after the first administration, Mean” value (0.3 mg/kg, time 0.5 h) of the same molecule?
Its value is 200.671.

And the “Serum PTH levels after the first administration, Mean” value (0.3 mg/kg, time 2 h)?
Its value is 273.789.

What about the “Serum PTH levels after the first administration, Mean” value (0.3 mg/kg, time 4 h) of the same molecule?
The value was 614.302.

And the “Serum PTH levels after the first administration, Mean” value (0.3 mg/kg, time 8 h)?
Its value is 1297.802.

And the “Serum PTH levels after the first administration, Mean” value (0.3 mg/kg, time 24 h)?
Its value is 1196.310.

And the “Serum PTH levels before (day 0) and 24 h after evocalcet administration, Mean” value (1 mg/kg, day 0 (before))?
Its value is 2488.277.

What about the “Serum PTH levels before (day 0) and 24 h after evocalcet administration” value (1 mg/kg, day 0 (before), 1 mg/kg) of the same molecule?
The value was 3077.112 and 1497.503 and 1942.068 and 2386.399.

What about the “Serum PTH levels before (day 0) and 24 h after evocalcet administration, Mean” value (1 mg/kg, day 7 (24 h)) of the same molecule?
Its value is 641.383.

What about the “Serum PTH levels before (day 0) and 24 h after evocalcet administration” value (1 mg/kg, day 7 (24 h), 1 mg/kg) of the same molecule?
Its value is 740.010 and 15.500 and 123.742.

What about the “Serum PTH levels before (day 0) and 24 h after evocalcet administration, Mean” value (1 mg/kg, day 14 (24 h)) of the same molecule?
The value was 594.302.

And the “Serum PTH levels before (day 0) and 24 h after evocalcet administration” value (1 mg/kg, day 14 (24 h), 1 mg/kg)?
The value was 671.158 and 155.818 and 37.909.

What about the “Serum PTH levels after the first administration, Mean” value (1 mg/kg, time 0 h) of the same molecule?
The value was 2488.277.

What about the “Serum PTH levels after the first administration, Mean” value (1 mg/kg, time 0.5 h) of the same molecule?
Its value is 86.013.

What about the “Serum PTH levels after the first administration, Mean” value (1 mg/kg, time 2 h) of the same molecule?
The value was 672.764.

And the “Serum PTH levels after the first administration, Mean” value (1 mg/kg, time 4 h)?
Its value is 302.274.

What about the “Serum PTH levels after the first administration, Mean” value (1 mg/kg, time 8 h) of the same molecule?
The value was 788.660.

What about the “Serum PTH levels after the first administration, Mean” value (1 mg/kg, time 24 h) of the same molecule?
The value was 864.186.

And the “Doses that steadily decreased the serum PTH level” value (once daily oral for 14 days, 24 h after administration on days 7 and 14)?
Its value is ≥ 0.3 mg/kg.

And the “Doses that significantly decreased the serum PTH level” value (single oral dose, vs vehicle group)?
Its value is ≥ 0.1 mg/kg.
